In patent US7354711B2, “Methods for inhibiting immunostimulatory DNA associated responses” (University of Iowa Research Foundation, priority 1997, dated 2008):

System: WEHI 231 cells
Experiment: Inhibition of CpG-ODN 1760 protection against α-sIgM-induced inhibition of [3H] thymidine uptake
Type: cell-based, mouse
Conditions: for Fold: activity expressed as a fraction of activity of chloroquine / Activity: -log10 of the concentration (M) required for half maximal inhibition of CpG-ODN effect on [3H] thymidine uptake in the presence of α-sIgM: Table 2, 4-aminoquinolines; for Activity: -log10 of the concentration (M) required for half maximal inhibition of CpG-ODN effect on [3H] thymidine uptake in the presence of α-sIgM / Activity,-log10 (concentration (M) for half maximal inhibition of CpG-ODN effect on [3H] thymidine uptake in the presence of α-sIgM): WEHI 231 cells; for vs. Chloroquine, fold / Activity,-log10 (concentration (M) for half maximal inhibition of CpG-ODN effect on [3H] thymidine uptake in the presence of α-sIgM): Table 3, 9-aminoacridines
Procedure: The assay of [^3H] Thymidine incorporation was carried out as follows. WEHI 231 cells (200 μL at 2×10^5/milliliter, in duplicate or triplicate) were incubated in a 96-well plate (Costar, Cambridge Mass.). Additions were made as indicated. After incubating for 16 hours, 0.5 μCi [methyl-^3H] thymidine (2 Ci/millimole, DuPont NEN, Boston Mass.) was added to each well, and the cells were incubated for another 4 hours. Cellular DNA was then captured onto glass fiber filters (Whatman 934AH) using a cell harvester (Brandel, Gaithersberg Md.). The filters were dried, placed into plastic scintillation vials with 10 milliliters of scintillation cocktail (EconoSafe, Research Products International, Mount Prospect Ill.), and counted in a liquid scintillation counter (Beckman LS-3133 T). The ^3H recovered on the filter was expressed as a fraction of the ^3H added.
Referring to experiments summarized in FIG. 1, WEHI 231 cells (ca. 2×10^5 per milliliter) were incubated for 16 hours at 37° C. with 10 μgrams/milliliter α-sIgM, 6 μgrams/milliliter ODN 1760, and the indicated concentration of the compound. After 16 hours, 0.5 μCi [^3H] thymidine was added. After 4 more hours incubation, the cellular DNA was harvested onto glass fiber filters. The dry filters were counted in a liquid scintillation counter.
Each experimental point was the mean of at least duplicate measurements.
Referring to the experiments summarized in FIG. 3, 10 μgrams/milliliter α-sIgM and the indicated concentrations of ODN 1760 and quinacrine were added simultaneously to WEHI 231 cells. Thymidine incorporation was estimated at 16 hours as described for Example 1.
Referring to the experiments summarized in FIG. 4, WEHI 231 cells were incubated with α-sIgM and ODN 1760. At times thereafter 0.1 μM quinacrine was added (data shown in the left three bars). Cells were incubated with 10 μgrams/milliliter (α-sIgM and ODN 1760 (6 μgrams/milliliter, phosphorothioate or a phosphodiester ODN with the same sequence as 1760 (PD ODN) (30 μM at time 0 hours and 8 hours; data represented in right six bars in FIG. 4). [^3H] thymidine incorporation was estimated at 16 hours.
The symbol — indicates no change. Me and Et indicate —CH3 and —CH2CH3 respectively. Aromatic substituents are in the para position except as indicated. The activity is —log10 of the concentration (M) required for half maximal inhibition of CpG-ODN effect on [^3H] thymidine uptake in the presence of α-sIgM.

Row | Compound | Fold: activity expressed as a fraction of activity of chloroquine [fold] | Activity: -log10 of the concentration (M) required for half maximal inhibition of CpG-ODN effect on [3H] thymidine uptake in the presence of α-sIgM | other results
1 | C=C[C@H]1C[N@@]2CC[C@H]1C[C@@H]2[C@@H](O)c1ccnc2ccc(OC)cc12 [Quinidine, quinidine, reference compound] |  |  | Effect on CpG-ODN action (FIG. 1) (at concentrations less than 10 μM): little effect
2 | CCN(CC)Cc1cc(Nc2ccnc3cc(Cl)ccc23)ccc1O [amodiaquine, reference compound] |  |  | Inhibition of the CpG-ODN effect (FIG. 1) (at nanomolar concentrations, 10 μg/mL α-sIgM, 6 μg/mL ODN 1760): completely inhibited
3 | CCN(CC)CCCC(C)Nc1c(C)cnc2cc(Cl)ccc12 (centres unmarked) [compound 1] | 0.55 | 6.70 | 
4 | CCN(CC)CCCC(C)Nc1ccnc2cc(C)ccc12 (centres unmarked) [compound 3] | 0.16 | 6.16 | 
5 | CCN(CC)CCCC(C)Nc1ccnc2cc(Br)ccc12 (centres unmarked) [compound 4] | 0.72 | 6.82 | 
6 | CCN(CC)CCC(CNc1ccnc2cc(Cl)ccc12)c1ccccc1 (centres unmarked) [compound 7] | 1.38 | 7.10 | 
7 | CC[N+](C)(CC)CCCC(C)Nc1ccnc2cc(Cl)ccc12 (centres unmarked) [compound 8] | 0.02 | 5.18 | 
8 | CCN(CC)CCCC(C)Nc1ccnc2cccc(Cl)c12 (centres unmarked) [compound 9] | 0.76 | 6.84 | 
9 | CN(C)CCCCNc1ccnc2cc(Cl)ccc12 [compound 10] | 0.72 | 6.82 | 
10 | CCN(CC)CCCC(C)Nc1ccnc2cc(Cl)ccc12 (centres unmarked) [compound 11] |  | 6.56 | 
11 | CCN(CC)CCCC(C)Nc1c(-c2ccccc2)cnc2cc(Cl)ccc12 (centres unmarked) [compound 12] | 0.69 | 6.80 | 
12 | CCN(CC)CCCC(C)Nc1ccnc2cc(F)ccc12 (centres unmarked) [compound 13] | 0.26 | 6.38 | 
13 | CCN(CC)CCCC(C)Nc1ccnc2cc(OC)ccc12 (centres unmarked) [compound 14] | 0.17 | 6.20 | 
14 | CCN(CC)CCCC(C)Nc1ccnc2cc(Cl)ccc12 (centres unmarked) [compound 15] |  | 6.96 | 
15 | CCN(CC)CCCC(Nc1c2ccc(Cl)cc2nc2ccc(OC)cc12)c1ccc(F)cc1 (centres unmarked) [compound 23] |  |  | vs. Chloroquine, fold: 2.57 fold; Activity,-log10 (concentration (M) for half maximal inhibition of CpG-ODN effect on [3H] thymidine uptake in the presence of α-sIgM): 7.37
16 | CCN(CC)CCCC(Nc1c2ccc(Cl)cc2nc2ccc(OC)cc12)c1cccnc1 (centres unmarked) [compound 24] |  |  | vs. Chloroquine, fold: 3.63 fold; Activity,-log10 (concentration (M) for half maximal inhibition of CpG-ODN effect on [3H] thymidine uptake in the presence of α-sIgM): 7.52
17 | CCN(CC)CCCC(Nc1c2ccc(Cl)cc2nc2ccc(OC)cc12)c1ccccc1 (centres unmarked) [compound 25] |  |  | vs. Chloroquine, fold: 5.75 fold; Activity,-log10 (concentration (M) for half maximal inhibition of CpG-ODN effect on [3H] thymidine uptake in the presence of α-sIgM): 7.72
18 | CCN(CC)CCCC(C)Nc1c2ccc(Cl)cc2nc2cc(OC)c(OC)cc12 (centres unmarked) [compound 26] |  |  | vs. Chloroquine, fold: 10.72 fold; Activity,-log10 (concentration (M) for half maximal inhibition of CpG-ODN effect on [3H] thymidine uptake in the presence of α-sIgM): 7.99
19 | CCN(CC)CCCC(Nc1c2ccc(Cl)cc2nc2ccc(OC)cc12)c1cccs1 (centres unmarked) [compound 27] |  |  | vs. Chloroquine, fold: 1.82 fold; Activity,-log10 (concentration (M) for half maximal inhibition of CpG-ODN effect on [3H] thymidine uptake in the presence of α-sIgM): 7.22
20 | CCN(CC)CCCC(Nc1c2ccc(Cl)cc2nc2ccc(OC)cc12)c1ccc(Cl)cc1 (centres unmarked) [compound 28] |  |  | vs. Chloroquine, fold: 1.82 fold; Activity,-log10 (concentration (M) for half maximal inhibition of CpG-ODN effect on [3H] thymidine uptake in the presence of α-sIgM): 7.22

Row | Compound | Fold: activity expressed as a fraction of activity of chloroquine [fold] | Activity: -log10 of the concentration (M) required for half maximal inhibition of CpG-ODN effect on [3H] thymidine uptake in the presence of α-sIgM | other results
21 | CCN(CC)CCCC(Nc1c2ccc(Cl)cc2nc2ccc(OC)cc12)c1cccc2ccccc12 (centres unmarked) [compound 29] |  |  | vs. Chloroquine, fold: 1.91 fold; Activity,-log10 (concentration (M) for half maximal inhibition of CpG-ODN effect on [3H] thymidine uptake in the presence of α-sIgM): 7.24
22 | CCN(CC)CCCC(Nc1c2ccc(Cl)cc2nc2ccc(OC)cc12)c1ccc(OC)cc1 (centres unmarked) [compound 30] |  |  | vs. Chloroquine, fold: 2.09 fold; Activity,-log10 (concentration (M) for half maximal inhibition of CpG-ODN effect on [3H] thymidine uptake in the presence of α-sIgM): 7.28
23 | CCN(CC)CCCC(C)Nc1c(C)cnc2cc(Cl)c(C)cc12 (centres unmarked) [compound 32] | 2.57 | 7.37 | 
24 | CCN(CC)CCCC(CNc1ccnc2cc(Cl)ccc12)c1ccc(Cl)cc1 (centres unmarked) [compound 33] | 2.95 | 7.43 | 
25 | CCN(CC)CC(CNc1ccnc2cc(Cl)ccc12)c1ccc(OC)cc1 (centres unmarked) [compound 34] | 5.04 | 7.66 | 
26 | CCN(CC)CCCCNc1c(C)cnc2cc(Cl)ccc12 [compound 35] | 0.81 | 6.87 | 
27 | CCN(CC)CCCC(C)Nc1ccnc2cc(C)ccc12 (centres unmarked) [compound 37] | 0.03 | 5.50 | 
28 | CCN(CC)CCCC(C)Nc1c(C)c(C)nc2ccccc12 (centres unmarked) [compound 39] | 0.04 | 5.58 | 
29 | CCN(CC)CCCC(C)Nc1c(C)cnc2cccc(C)c12 (centres unmarked) [compound 40] | 0.23 | 6.32 | 
30 | CCN(CC)CCCC(C)Nc1c(C)cnc2cc(OC)ccc12 (centres unmarked) [compound 41] | 0.28 | 6.64 | 
31 | CCN(CC)CCCC(C)Nc1ccnc2ccc(Oc3ccccc3)cc12 (centres unmarked) [compound 42] | 1.48 | 7.13 | 
32 | CCN(CC)CCCC(C)Nc1ccnc2cc(Cl)c(SCc3ccccc3)cc12 (centres unmarked) [compound 43] | 4.57 | 7.62 | 
33 | CCN(CC)CCCC(C)Nc1cc(-c2ccccc2)nc2cc(OC)ccc12 (centres unmarked) [compound 44] | 3.63 | 7.52 | 
34 | CCN(CC)CCCC(C)Nc1c(C)cnc2cc(Cl)c(C)cc12 (centres unmarked) [compound 46] | 0.21 | 6.28 | 
35 | OC1CCCC1Nc1ccnc2cc(Cl)ccc12 (centres unmarked) [compound 47] | 0.02 | 5.25 | 
36 | CCN(CC)CCCC(C)Nc1cc(-c2ccccc2)nc2cc(Cl)ccc12 (centres unmarked) [compound 48] | 2.14 | 7.29 | 
37 | CCN(CC)CCCC(C)Nc1ccnc2cc(Oc3ccccc3)ccc12 (centres unmarked) [compound 50] | 0.74 | 6.83 | 
38 | CCN(CC)CCCC(C)Nc1ccnc2ccc(-c3ccccc3)cc12 (centres unmarked) [compound 51] | 1.62 | 7.17 | 
39 | CCN(CC)CC=CC(C)Nc1ccnc2cc(Cl)ccc12 (centres unmarked) [compound 53] | 0.81 | 6.87 | 
